These results are taken from ChEMBL document CHEMBL1146379, “Solid phase synthesis and SAR of small molecule agonists for the GPR40 receptor” (Bioorg Med Chem Lett, 2007).

The structures appear in SMILES notation. pEC50, pIC50, pKi: −log10 of the molar value. Converted amounts (≈) assume the structure as drawn.

A short description of data set [1]: Volume of distribution at steady state in rat. The data set is classed as ADME, organism-based. The settings on record: in vivo, read-out: Vdss.
The nature of data set [2]: Half life in po dosed rat. Format: ADME, organism-based. The following applies: in vivo.
The nature of data set [3]: Half life in iv dosed rat. The following applies: in vivo. Format: ADME, organism-based.
The target of data set [4] is T1, Free fatty acid receptor 1 (Homo sapiens, UniProt O14842). As to the kind of experiment: Agonist activity at GPR40 receptor. The data set is classed as functional.
Data set [5] is described as follows: Solubility at pH 7.4. The following applies: buffer. Format: physicochemical.
Data set [6] in a line: Distribution coefficient, log D at pH 7.4. The following applies: octanol/water. Format: physicochemical.
The target of data set [7] is T1, Free fatty acid receptor 1. As to the kind of experiment: Agonist activity at GPR40 receptor expressed in CHO cells by reporter gene assay. The data set is classed as functional, cell-based. In general terms: A reporter such as luciferase makes a cellular process visible.
Data set [8] deals with T2, Free fatty acid receptor 3 (Homo sapiens, UniProt O14843).
T2 sequence (O14843 whole entry): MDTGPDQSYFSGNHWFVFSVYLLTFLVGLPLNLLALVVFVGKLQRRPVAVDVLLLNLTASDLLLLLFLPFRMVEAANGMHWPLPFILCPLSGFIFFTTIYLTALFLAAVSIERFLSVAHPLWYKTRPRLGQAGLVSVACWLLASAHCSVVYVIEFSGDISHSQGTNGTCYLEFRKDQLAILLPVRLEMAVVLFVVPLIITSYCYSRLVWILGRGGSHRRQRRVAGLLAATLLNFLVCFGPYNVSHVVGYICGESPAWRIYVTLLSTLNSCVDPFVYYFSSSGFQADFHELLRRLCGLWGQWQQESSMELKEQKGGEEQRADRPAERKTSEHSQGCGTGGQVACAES
As to the kind of experiment: Activity at GPR41 receptor.

For data set [9], the target named is T3, Free fatty acid receptor 2 (Homo sapiens, UniProt O15552).
T3 sequence (O15552 whole entry): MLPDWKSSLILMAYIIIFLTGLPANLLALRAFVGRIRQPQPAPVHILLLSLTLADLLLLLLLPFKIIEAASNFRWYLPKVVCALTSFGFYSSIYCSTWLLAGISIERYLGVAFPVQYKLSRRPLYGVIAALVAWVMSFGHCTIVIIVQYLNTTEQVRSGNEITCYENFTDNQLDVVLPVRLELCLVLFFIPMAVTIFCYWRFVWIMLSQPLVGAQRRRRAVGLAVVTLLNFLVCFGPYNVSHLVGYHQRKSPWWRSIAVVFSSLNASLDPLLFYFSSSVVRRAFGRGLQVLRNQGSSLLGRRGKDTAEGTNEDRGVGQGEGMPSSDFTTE
As to the kind of experiment: Activity at GPR43 receptor.

Data set [10] addresses Sphingosine 1-phosphate receptor 1 (Homo sapiens, UniProt P21453). Nature of the data set: Activity at S1P1 receptor.
Data set [11] addresses T4, Peroxisome proliferator-activated receptor delta (Homo sapiens, UniProt Q03181).
T4 sequence (Q03181 whole entry): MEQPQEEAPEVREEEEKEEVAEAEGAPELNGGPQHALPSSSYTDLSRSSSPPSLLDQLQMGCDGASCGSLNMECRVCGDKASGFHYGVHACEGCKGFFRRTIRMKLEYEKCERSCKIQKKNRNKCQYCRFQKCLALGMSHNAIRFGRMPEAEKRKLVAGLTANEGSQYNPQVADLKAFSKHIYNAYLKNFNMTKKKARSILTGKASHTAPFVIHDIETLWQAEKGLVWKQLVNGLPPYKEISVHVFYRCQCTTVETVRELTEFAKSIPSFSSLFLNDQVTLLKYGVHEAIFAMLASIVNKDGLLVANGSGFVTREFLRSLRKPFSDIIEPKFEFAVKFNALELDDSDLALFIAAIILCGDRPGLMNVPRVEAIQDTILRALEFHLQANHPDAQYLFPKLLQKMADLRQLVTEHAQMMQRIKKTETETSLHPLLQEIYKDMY
As to the kind of experiment: Activity at PPARdelta receptor.

Data set [12] has as its target T5, Peroxisome proliferator-activated receptor gamma (Homo sapiens, UniProt P37231).
T5 sequence (P37231 whole entry): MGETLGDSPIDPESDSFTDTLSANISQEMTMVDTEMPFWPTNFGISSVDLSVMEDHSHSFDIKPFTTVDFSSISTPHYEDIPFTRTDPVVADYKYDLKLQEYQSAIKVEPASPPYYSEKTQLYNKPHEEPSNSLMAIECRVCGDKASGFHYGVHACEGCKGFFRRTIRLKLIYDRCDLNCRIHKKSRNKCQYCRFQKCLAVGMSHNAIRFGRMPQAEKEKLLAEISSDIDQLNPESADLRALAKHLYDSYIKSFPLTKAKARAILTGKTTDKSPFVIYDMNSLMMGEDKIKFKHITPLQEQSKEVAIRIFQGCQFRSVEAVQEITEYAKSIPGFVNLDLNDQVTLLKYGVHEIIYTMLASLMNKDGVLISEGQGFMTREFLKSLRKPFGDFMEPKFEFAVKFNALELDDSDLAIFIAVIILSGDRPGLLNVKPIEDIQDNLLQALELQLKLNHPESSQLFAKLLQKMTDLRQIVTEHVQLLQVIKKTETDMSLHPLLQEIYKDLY
Nature of the data set: Activity at PPARgamma receptor.

The target of data set [13] is Prostaglandin E2 receptor EP4 subtype (Homo sapiens, UniProt P35408). Nature of the data set: Activity at EP4 receptor.
The next data set addresses T6, Cytochrome P450 1A2 (Homo sapiens, UniProt P05177).
T6 sequence (P05177 whole entry): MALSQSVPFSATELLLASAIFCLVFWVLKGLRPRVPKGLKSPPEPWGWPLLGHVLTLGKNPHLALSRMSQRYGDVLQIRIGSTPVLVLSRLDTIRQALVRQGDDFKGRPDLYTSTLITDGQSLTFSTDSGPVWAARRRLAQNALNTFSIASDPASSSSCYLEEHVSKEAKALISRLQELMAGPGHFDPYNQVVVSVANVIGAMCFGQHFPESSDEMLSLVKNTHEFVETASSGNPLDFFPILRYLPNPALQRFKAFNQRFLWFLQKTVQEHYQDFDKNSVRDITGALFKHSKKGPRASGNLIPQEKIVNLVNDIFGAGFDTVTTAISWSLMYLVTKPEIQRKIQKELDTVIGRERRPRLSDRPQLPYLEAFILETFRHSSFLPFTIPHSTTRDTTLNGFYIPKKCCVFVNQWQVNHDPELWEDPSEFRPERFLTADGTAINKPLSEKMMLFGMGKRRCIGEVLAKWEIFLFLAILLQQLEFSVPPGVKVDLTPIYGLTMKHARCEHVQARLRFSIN
As to the kind of experiment: Inhibition of CYP1A2. Format: ADME.

The target in a further data set is Cytochrome P450 2C9 (Homo sapiens, UniProt P11712). Nature of the data set: Inhibition of CYP2C9. Format: ADME.
The next data set addresses Cytochrome P450 3A4 (Homo sapiens, UniProt P08684). Nature of the data set: Inhibition of CYP3A4. Format: ADME.
Data set [14] is described as follows: Permeability in MDCK cells expressing low Pgp. The data set is classed as ADME, cell-based, Canis lupus familiaris. The following applies: dog, MDCK type I; read-out: permeability.
The nature of data set [15]: Protein binding in rat plasma by ultrafiltration assay. Format: ADME, cell-free. The following applies: read-out: PB.
The nature of data set [16]: Clearance in rat. Format: ADME, organism-based. The following applies: in vivo.

T1 sequence (O14842 whole entry): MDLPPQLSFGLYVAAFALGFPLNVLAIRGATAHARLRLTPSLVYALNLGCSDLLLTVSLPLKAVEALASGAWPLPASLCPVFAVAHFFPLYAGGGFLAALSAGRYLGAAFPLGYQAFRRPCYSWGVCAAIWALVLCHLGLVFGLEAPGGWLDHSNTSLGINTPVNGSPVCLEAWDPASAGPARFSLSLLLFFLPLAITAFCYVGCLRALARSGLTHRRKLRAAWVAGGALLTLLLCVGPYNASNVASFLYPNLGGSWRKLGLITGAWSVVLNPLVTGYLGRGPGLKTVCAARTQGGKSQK
Prostaglandin E2 receptor EP4 subtype, sequence (P35408 whole entry): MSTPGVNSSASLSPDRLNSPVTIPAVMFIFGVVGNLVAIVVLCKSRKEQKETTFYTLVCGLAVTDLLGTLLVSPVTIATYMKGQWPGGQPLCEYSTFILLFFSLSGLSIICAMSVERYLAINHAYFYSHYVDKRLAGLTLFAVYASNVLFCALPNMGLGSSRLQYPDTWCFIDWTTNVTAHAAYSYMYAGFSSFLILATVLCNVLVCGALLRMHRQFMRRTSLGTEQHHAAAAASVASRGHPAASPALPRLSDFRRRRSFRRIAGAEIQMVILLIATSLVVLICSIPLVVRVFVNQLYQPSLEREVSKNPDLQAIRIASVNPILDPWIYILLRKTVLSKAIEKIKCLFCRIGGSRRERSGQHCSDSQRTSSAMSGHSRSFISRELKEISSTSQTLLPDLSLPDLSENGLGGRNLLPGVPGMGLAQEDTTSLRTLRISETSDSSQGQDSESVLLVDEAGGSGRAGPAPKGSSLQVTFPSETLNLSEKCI
Sphingosine 1-phosphate receptor 1, sequence (P21453 whole entry): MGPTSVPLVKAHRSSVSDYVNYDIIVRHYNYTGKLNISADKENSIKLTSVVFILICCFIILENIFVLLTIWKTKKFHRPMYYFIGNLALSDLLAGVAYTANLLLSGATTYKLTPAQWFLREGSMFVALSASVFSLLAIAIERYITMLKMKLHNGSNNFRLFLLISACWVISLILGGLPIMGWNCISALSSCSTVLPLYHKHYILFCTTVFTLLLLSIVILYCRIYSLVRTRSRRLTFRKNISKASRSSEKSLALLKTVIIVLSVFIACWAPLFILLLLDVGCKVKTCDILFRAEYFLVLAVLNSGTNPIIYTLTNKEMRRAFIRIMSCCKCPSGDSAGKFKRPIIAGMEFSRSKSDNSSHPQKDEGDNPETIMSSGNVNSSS
Cytochrome P450 2C9, sequence (P11712 whole entry): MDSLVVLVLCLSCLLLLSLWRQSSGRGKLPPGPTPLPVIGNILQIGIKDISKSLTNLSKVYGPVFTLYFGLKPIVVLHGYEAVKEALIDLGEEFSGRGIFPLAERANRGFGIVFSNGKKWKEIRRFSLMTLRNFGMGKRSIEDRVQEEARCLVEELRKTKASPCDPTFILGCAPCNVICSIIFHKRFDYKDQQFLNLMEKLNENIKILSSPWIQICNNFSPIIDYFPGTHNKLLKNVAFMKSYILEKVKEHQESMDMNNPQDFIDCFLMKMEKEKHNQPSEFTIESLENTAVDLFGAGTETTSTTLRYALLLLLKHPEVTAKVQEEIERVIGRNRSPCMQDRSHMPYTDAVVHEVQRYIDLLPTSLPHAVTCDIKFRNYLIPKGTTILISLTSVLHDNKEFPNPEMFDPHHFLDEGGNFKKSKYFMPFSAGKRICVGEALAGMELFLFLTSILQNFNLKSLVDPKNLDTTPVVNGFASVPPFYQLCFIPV
Cytochrome P450 3A4, sequence (P08684 whole entry): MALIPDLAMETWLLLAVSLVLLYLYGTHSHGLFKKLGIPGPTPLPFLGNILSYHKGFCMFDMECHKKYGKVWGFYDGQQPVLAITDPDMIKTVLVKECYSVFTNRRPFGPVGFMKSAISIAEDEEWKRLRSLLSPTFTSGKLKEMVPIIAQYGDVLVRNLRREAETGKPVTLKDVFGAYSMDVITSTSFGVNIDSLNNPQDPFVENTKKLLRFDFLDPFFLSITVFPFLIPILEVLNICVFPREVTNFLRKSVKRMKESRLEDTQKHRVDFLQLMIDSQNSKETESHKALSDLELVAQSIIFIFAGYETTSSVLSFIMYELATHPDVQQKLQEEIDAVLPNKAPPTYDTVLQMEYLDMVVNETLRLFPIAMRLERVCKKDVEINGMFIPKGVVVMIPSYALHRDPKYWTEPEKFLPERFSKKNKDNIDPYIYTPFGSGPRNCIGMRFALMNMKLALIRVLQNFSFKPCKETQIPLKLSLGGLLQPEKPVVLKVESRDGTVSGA

As a reminder, the half-life is the time needed for the level to fall by half in the phase considered. In general, pEC50 refers to the EC50 on a negative log10 scale, so that one unit is a factor of ten. A higher pEC50 goes with a low EC50. What is called solubility is the dissolved amount per volume that the medium holds. Higher therefore signals much dissolved substance. In general, logD refers to the decadic logarithm of the distribution of all forms, ionised or not, between an organic phase and buffer at a given pH. The term pKi denotes the Ki on a negative log10 scale, so that one unit is a factor of ten. Read a high pKi as a low Ki. The pIC50 is the negative decadic logarithm of the IC50, by convention in mol/L. High values mean a low IC50, low ones a high IC50. As usually defined, the clearance is a measure of how efficiently the substance is removed, as volume per time. Low readings indicate a low capacity for elimination, high ones a high capacity for elimination. For `O=C(O)CCc1ccc(NCc2cccc(Oc3ccccc3)c2)cc1` [GW9508], the Vd in data set [1] amounted to 4.7 L/kg. For the same compound, the half-life was 5.9 h in [2] and 5.3 h in data set [3]. Moreover, the pEC50 in data set [4] is 7.10; in data set [8], under 4.30; in data set [9] it was under 4.30; in data set [10], under 4.50. In data set [5], this compound yielded a solubility of 290 µg/mL (≈ 835 µM). This compound came in with a logD in data set [6] of 1.95. Further, the %max in data set [7] turned out to be 69%. The pKi in [11], in data set [12] and in [13] was under 5.50 throughout. In addition, the pIC50 on Cytochrome P450 1A2, against Cytochrome P450 2C9 and against Cytochrome P450 3A4 was under 4.48 in each case. In addition, in data set [14], the Papp is 59.9 ×10⁻⁶ cm/s. Further, in data set [15], the fraction unbound was under 0.004. The compound also came in with a clearance in [16] of 24.9 mL/min/kg.
